Experimental data published in PubChem BioAssay AID330 (DTP/NCI, 2004).
Where “and” joins values, the source holds several entries; their conditions need not be identical. Identical values can stand only once. Inconclusive results and toxic doses are left out. How the source made its calls: active means survival T/C of 150% or more; inactive means T/C below 125% in these data.

Test system: P388 leukemia ip, CD2F1 mice, survival T/C
Assay: NCI In Vivo Anticancer Drug Screen. Data for tumor model P388 Leukemia (intraperitoneal) in CD2F1 (CDF1) mice
Conditions: endpoint: median survival time, higher = longer survival
Summary of the method: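 Mice carrying the transplanted tumor received test compound or vehicle. Survival was recorded in each group, and the value is the treated-group measurement divided by that of the vehicle-treated control group.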

[1] = dose: 60.0 mg/kg/injection, schedule: Q01DX005 (ip), vehicle: saline with Tween-80
[2] = dose: 120.0 mg/kg/injection, schedule: Q01DX005 (ip), vehicle: saline with Tween-80
[3] = dose: 240.0 mg/kg/injection, schedule: Q01DX005 (ip), vehicle: saline with Tween-80
[4] = dose: 100.0 mg/kg/injection, schedule: Q04DX003 (ip), vehicle: Klucel (hydroxypropylcellulose) (HPC)
[5] = dose: 200.0 mg/kg/injection, schedule: Q04DX003 (ip), vehicle: Klucel (hydroxypropylcellulose) (HPC)
[6] = dose: 400.0 mg/kg/injection, schedule: Q04DX003 (ip), vehicle: Klucel (hydroxypropylcellulose) (HPC)
[7] = dose: 50.0 mg/kg/injection, schedule: Q01DX005 (ip), vehicle: saline with Tween-80
[8] = dose: 100.0 mg/kg/injection, schedule: Q01DX005 (ip), vehicle: saline with Tween-80
[9] = dose: 200.0 mg/kg/injection, schedule: Q01DX005 (ip), vehicle: saline with Tween-80
[10] = dose: 25.0 mg/kg/injection, schedule: Q01DX009 (ip), vehicle: saline with Tween-80
[11] = dose: 50.0 mg/kg/injection, schedule: Q01DX009 (ip), vehicle: saline with Tween-80
[12] = dose: 100.0 mg/kg/injection, schedule: Q01DX009 (ip), vehicle: saline with Tween-80
[13] = dose: 200.0 mg/kg/injection, schedule: Q01DX009 (ip), vehicle: saline with Tween-80

Measured: T/C

COc1cc(C(Nc2ncccn2)c2cc3c(cc2O)OCO3)cc(OC)c1OC (configuration not stated)
inactive: [1] 100 % of control | [2] 92 % of control | [3] 90 % of control

C/C(=C\c1ccccc1)C(=O)C(CN(C)C)CN(C)C
inactive: dose: 1.87 mg/kg/injection, schedule: Q01DX005 (ip), vehicle: saline 111 % of control | dose: 3.75 mg/kg/injection, schedule: Q01DX005 (ip), vehicle: saline 113 % of control | dose: 7.5 mg/kg/injection, schedule: Q01DX005 (ip), vehicle: saline 100 % of control and 113 % of control

CCO/C=C1/N=C(c2ccc(Cl)cc2)OC1=O
inactive: [1] 121 % of control

O=C1NC(=O)C(c2ccccc2)(c2ccccc2)N1CCS
inactive: dose: 12.5 mg/kg/injection, schedule: Q04DX003 (ip), vehicle: saline 108 % of control | dose: 25.0 mg/kg/injection, schedule: Q04DX003 (ip), vehicle: Klucel (hydroxypropylcellulose) (HPC) 98 % of control and 108 % of control | dose: 25.0 mg/kg/injection, schedule: Q04DX003 (ip), vehicle: saline 100 % of control | dose: 50.0 mg/kg/injection, schedule: Q04DX003 (ip), vehicle: Klucel (hydroxypropylcellulose) (HPC) 98 % of control and 99 % of control | dose: 50.0 mg/kg/injection, schedule: Q04DX003 (ip), vehicle: saline 104 % of control | [4] 97 % of control | dose: 100.0 mg/kg/injection, schedule: Q04DX003 (ip), vehicle: saline 108 % of control | [5] 100 % of control and 117 % of control | dose: 200.0 mg/kg/injection, schedule: Q04DX003 (ip), vehicle: saline 94 % of control | [6] 106 % of control and 109 % of control

Cn1c(-c2nc3ccccc3n2C)nc2ccccc21
inactive: [7] 102 % of control | [8] 98 % of control | [9] 102 % of control

CCCN=C1NS(=O)(=O)c2ccccc21
inactive: [7] 110 % of control | [8] 98 % of control | [9] 93 % of control

c1ccc(-c2nnc3ccccc3n2)cc1
inactive: [10] 99 % of control | [11] 98 % of control | [12] 98 % of control | [13] 93 % of control

O=C(O)C12C3C4C5C3C3(OCCO3)C1(Br)C5C42 (configuration not stated)
inactive: [1] 100 % of control | [2] 102 % of control | [3] 107 % of control

CCN=C=NCCCN(C)C
inactive: dose: 7.5 mg/kg/injection, schedule: Q01DX009 (ip), vehicle: saline 108 % of control | dose: 7.5 mg/kg/injection, schedule: Q04DX003 (ip), vehicle: saline 102 % of control | dose: 15.0 mg/kg/injection, schedule: Q01DX009 (ip), vehicle: saline 108 % of control | dose: 15.0 mg/kg/injection, schedule: Q04DX003 (ip), vehicle: saline 99 % of control | dose: 30.0 mg/kg/injection, schedule: Q01DX009 (ip), vehicle: saline 105 % of control | dose: 30.0 mg/kg/injection, schedule: Q04DX003 (ip), vehicle: saline 98 % of control | dose: 60.0 mg/kg/injection, schedule: Q01DX009 (ip), vehicle: saline 107 % of control

COC(=O)c1nc(N)nc(C(=O)OC)c1C(=O)c1cc(Cl)ccc1Cl
inactive: [1] 100 % of control | [2] 100 % of control

COC(=O)C1C2C=CC(C1C(=O)OC)N(/C=C/c1ccccc1)C2=O (configuration not stated)
inactive: [4] 96 % of control | [5] 95 % of control | [6] 97 % of control

O=C(CC(=O)C(F)(F)F)c1cc2ccccc2s1
inactive: [10] 113 % of control | [11] 96 % of control | [12] 115 % of control

CNc1ccc(C=C2c3ccccc3-c3ccccc32)cc1
inactive: dose: 12.5 mg/kg/injection, schedule: Q01DX001 (ip), vehicle: saline with Tween-80 102 % of control | dose: 25.0 mg/kg/injection, schedule: Q01DX001 (ip), vehicle: saline with Tween-80 105 % of control | dose: 50.0 mg/kg/injection, schedule: Q01DX001 (ip), vehicle: saline with Tween-80 112 % of control | dose: 100.0 mg/kg/injection, schedule: Q01DX001 (ip), vehicle: saline with Tween-80 106 % of control

CCN(CC)CCNC(=O)C(O)C1CCCCC1 (configuration not stated)
inactive: [1] 99 % of control | [2] 99 % of control

CNc1nc(C)nc(NC)n1
inactive: dose: 50.0 mg/kg/injection, schedule: Q01DX009 (ip), vehicle: Klucel (hydroxypropylcellulose) (HPC) 91 % of control | dose: 100.0 mg/kg/injection, schedule: Q01DX009 (ip), vehicle: Klucel (hydroxypropylcellulose) (HPC) 93 % of control | dose: 200.0 mg/kg/injection, schedule: Q01DX009 (ip), vehicle: Klucel (hydroxypropylcellulose) (HPC) 90 % of control

O=C(NC1CC1)c1ccccc1
inactive: [10] 96 % of control | [11] 100 % of control | [12] 87 % of control | [13] 87 % of control

CN1C2CCC1CC(OC(=O)CBr)C2 (configuration not stated)
inactive: dose: 12.5 mg/kg/injection, schedule: Q01DX009 (ip), vehicle: saline 115 % of control | dose: 25.0 mg/kg/injection, schedule: Q01DX009 (ip), vehicle: saline 107 % of control | dose: 50.0 mg/kg/injection, schedule: Q01DX009 (ip), vehicle: saline 117 % of control and 120 % of control

CC(C)Oc1nc(N2CCNCC2)nc2c1CCCC2
inactive: dose: 15.0 mg/kg/injection, schedule: Q01DX005 (ip), vehicle: saline 101 % of control | dose: 30.0 mg/kg/injection, schedule: Q01DX005 (ip), vehicle: saline 104 % of control | dose: 60.0 mg/kg/injection, schedule: Q01DX005 (ip), vehicle: saline 111 % of control and 90 % of control

Cn1c(=O)c2nc(-c3ccccc3)nnc2n(C)c1=O
inactive: [4] 102 % of control | [5] 103 % of control | [6] 115 % of control

COC(=O)c1c(OC)c(Cl)c2cc3c(c(O)c2c1C)C(=O)[C@@]1(O)C(=O)C=C(OC)[C@H](O)[C@@]1(O)C3=O
inactive: dose: 11.0 mg/kg/injection, schedule: Q01DX005 (ip), vehicle: saline with Tween-80 103 % of control | dose: 22.0 mg/kg/injection, schedule: Q01DX005 (ip), vehicle: saline with Tween-80 105 % of control | dose: 44.0 mg/kg/injection, schedule: Q01DX005 (ip), vehicle: saline with Tween-80 89 % of control | dose: 88.0 mg/kg/injection, schedule: Q01DX005 (ip), vehicle: saline with Tween-80 94 % of control | dose: 176.0 mg/kg/injection, schedule: Q01DX005 (ip), vehicle: saline with Tween-80 99 % of control

O=[N+]([O-])C(CO)CCCC(CO)[N+](=O)[O-] (configuration not stated)
inactive: dose: 50.0 mg/kg/injection, schedule: Q01DX005 (ip), vehicle: saline 111 % of control | dose: 100.0 mg/kg/injection, schedule: Q01DX005 (ip), vehicle: saline 107 % of control | dose: 200.0 mg/kg/injection, schedule: Q01DX005 (ip), vehicle: saline 107 % of control

CCCCOc1cc2c(cc1C(C)c1ccc(OC)cc1)OCO2 (configuration not stated)
inactive: dose: 50.0 mg/kg/injection, schedule: Q01DX005 (ip), vehicle: distilled water + alcohol 96 % of control | dose: 100.0 mg/kg/injection, schedule: Q01DX005 (ip), vehicle: distilled water + alcohol 95 % of control | dose: 200.0 mg/kg/injection, schedule: Q01DX005 (ip), vehicle: distilled water + alcohol 96 % of control

Cc1nc2cc(N)c(Cl)cc2[nH]1
inactive: [1] 104 % of control | [2] 107 % of control

CCCC1(CCC)CCC2C3CCC4CC(O)CCC4(C)C3CCC2(C)N1O (configuration not stated)
inactive: dose: 100.0 mg/kg/injection, schedule: Q01DX001 (ip), vehicle: Klucel (hydroxypropylcellulose) (HPC) 92 % of control | dose: 200.0 mg/kg/injection, schedule: Q01DX001 (ip), vehicle: Klucel (hydroxypropylcellulose) (HPC) 89 % of control | dose: 400.0 mg/kg/injection, schedule: Q01DX001 (ip), vehicle: Klucel (hydroxypropylcellulose) (HPC) 91 % of control

NC(C/C=C\Cl)C(=O)O (configuration not stated)
inactive: dose: 50.0 mg/kg/injection, schedule: Q01DX005 (ip), vehicle: Klucel (hydroxypropylcellulose) (HPC) 102 % of control | dose: 100.0 mg/kg/injection, schedule: Q01DX005 (ip), vehicle: Klucel (hydroxypropylcellulose) (HPC) 98 % of control | dose: 200.0 mg/kg/injection, schedule: Q01DX005 (ip), vehicle: Klucel (hydroxypropylcellulose) (HPC) 110 % of control

[O-]/[N+](C1C(Cl)C2CC1C1C=CCC12)=[N+](\[O-])C1C(Cl)C2CC1C1C=CCC12 (configuration not stated)
inactive: dose: 15.0 mg/kg/injection, schedule: Q01DX005 (ip), vehicle: saline with Tween-80 95 % of control | dose: 30.0 mg/kg/injection, schedule: Q01DX005 (ip), vehicle: saline with Tween-80 92 % of control | [1] 100 % of control and 86 % of control

O=c1cc([N+](=O)[O-])c2c([nH]1)CCC2
inactive: [7] 97 % of control | [8] 94 % of control | [9] 90 % of control
